Source: patent US11447740B2, “Lactic acid bacterium and use thereof” (Sone Farm Co., Ltd., priority 2017, dated 2022)

Molecular target: T1, hyaluronidase (Bos taurus, UniProt Q2YDK3)
T1 sequence (Q2YDK3 36-553): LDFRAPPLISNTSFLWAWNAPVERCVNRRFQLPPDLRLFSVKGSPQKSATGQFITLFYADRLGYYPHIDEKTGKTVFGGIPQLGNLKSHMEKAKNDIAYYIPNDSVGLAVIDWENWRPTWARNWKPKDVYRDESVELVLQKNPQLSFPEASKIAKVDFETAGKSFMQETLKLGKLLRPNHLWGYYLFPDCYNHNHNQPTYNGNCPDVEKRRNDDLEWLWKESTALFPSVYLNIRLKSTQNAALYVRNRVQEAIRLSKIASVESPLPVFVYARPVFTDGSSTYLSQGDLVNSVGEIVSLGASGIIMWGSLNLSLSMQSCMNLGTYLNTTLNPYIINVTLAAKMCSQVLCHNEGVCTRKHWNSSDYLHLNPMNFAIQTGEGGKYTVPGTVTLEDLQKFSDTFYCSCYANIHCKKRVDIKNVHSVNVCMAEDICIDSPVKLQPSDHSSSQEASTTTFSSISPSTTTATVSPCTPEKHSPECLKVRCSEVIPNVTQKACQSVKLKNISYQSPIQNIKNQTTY
Test: Hyaluronidase activity inhibition
Assay type: biochemical
Conditions: pH 4.0, 37° C.
Method: 5 μL of a hyaluronidase enzyme solution (MP Biomedicals, 4 mg/mL, 100 mM sodium acetate buffer (pH 4.0)) was added to 10 μL of an aqueous solution containing polysaccharides at an optional concentration, which was prepared from the polysaccharide sample containing the neutral polysaccharide fractions and the acidic polysaccharide fractions, the neutral polysaccharide fractions, and the acidic polysaccharide fractions, which were exopolysaccharides produced by the strain IJH-SONE68 and obtained in Example 4. The resultant mixture was incubated at 37° C. for 20 minutes. Thereafter, to the mixture, 10 μL of an enzyme-activating solution (0.5 mg/ml Compound 48/80 (manufactured by MP Biomedicals)), 3.75 mg CaCl2.2H2O, and 100 mM sodium acetate buffer (pH 4.0)) were added, and incubated again at 37° C. for 20 minutes. Subsequently, to the resultant mixture, 25 μL of a sodium hyaluronate solution (Wako Pure Chemical Industries, 0.8 mg/mL, 100 mM sodium acetate buffer (pH 4.0)) was added, and further reacted at 37° C. for 40 minutes. After the reaction, the reaction was terminated by adding 10 μL of 0.4 M NaOH aqueous solution. […] 40 μL of the reaction solution was mixed with 200 μL of p-DMAB solution (described below), the mixture was reacted at 37° C. for 20 minutes, and the absorbance at 585 nm was then measured. […]

Hyaluronidase activity inhibition IC50: 530 µg/mL
SMILES: CC1(C)[C@@H](O[C@H]2O[C@H](C(=O)[O-])[C@@H](O)[C@H](O)[C@H]2O[C@@H]2O[C@H](C(=O)[O-])[C@@H](O)[C@H](O)[C@H]2O)CC[C@]2(C)[C@H]3C(=O)C=C4[C@@H]5C[C@@](C)(C(=O)O)CC[C@]5(C)CC[C@@]4(C)[C@]3(C)CC[C@@H]12.[K+].[K+] [Dipotassium glycyrrhizinate]
